# Test results as given in ChEMBL document CHEMBL1141818, “Annonaceous acetogenins: recent progress” (J Nat Prod, 1999).
# Tests used:
# MIA PaCa-2 = assay: Cytotoxicity against human MIA PaCa2 cells; assay type: functional; conditions: Homo sapiens, MIA PaCa-2; read-out: ED50 (the source's name)
# A549 = assay: Cytotoxicity against human A549 cells; assay type: functional; conditions: Homo sapiens, A549; read-out: ED50 (the source's name)
# PC-3 = assay: Cytotoxicity against human PC-3 cells; assay type: functional; conditions: Homo sapiens, PC-3; read-out: ED50 (the source's name)
# RPMI-7951 = assay: Cytotoxicity against human RPMI-7951 cells; assay type: functional; conditions: read-out: ED50 (the source's name)
# MCF7 [1] = assay: Cytotoxicity against human MCF7 cells; assay type: functional; conditions: Homo sapiens, MCF7; read-out: ED50 (the source's name)
# U-251 = assay: Cytotoxicity against human U251 cells; assay type: functional, cell-based; conditions: read-out: ED50 (the source's name)
# HT-29 = assay: Cytotoxicity against human HT-29 cells; assay type: functional; conditions: Homo sapiens, HT-29; read-out: ED50 (the source's name)
# Aedes aegypti = assay: Insecticidal activity against yellow fever mosquito; assay type: functional
# Blattella germanica [2] = assay: Ratio of LT50 for Blattella germanica Muncie second instars to LT50 for Blattella germanica Jwax second instars; assay type: functional
# X5563 = assay: Cytotoxicity against human X5563 cells; assay type: functional
# Blattella germanica [3] = assay: Ratio of LT50 for Blattella germanica Muncie fifth instars to LT50 for Blattella germanica Jwax fifth instars; assay type: functional
# [4] = Cytotoxicity against human CCM2 cells; assay type: functional; conditions: read-out: ED50 (the source's name)
# [5] = Cytotoxicity against human Hep2.2.15 cells; assay type: functional; conditions: HepG2 2.2.15, read-out: ED50 (the source's name)
# [6] = Cytotoxicity against human Hep G2 cells; assay type: functional; conditions: HepG2, read-out: ED50 (the source's name)
# [7] = Inhibition of NADH oxidase
# KB = assay: Cytotoxicity against human KB cells; assay type: functional, cell-based
# MCF7 [8] = assay: Cytotoxicity against human wild type MCF7 cells at 1 ug/ml; assay type: functional
smiles,measurement,setting,value
CCCCCCCCCC[C@H](O)[C@@H]1CC[C@@H]([C@@H]2CC[C@@H]([C@@H](O)CCC(O)CCCCCCCCC[C@@H](O)CC3=C[C@H](C)OC3=O)O2)O1 (stereo partly drawn) [ARTICULIN],EC50,MIA PaCa-2,1 µg/mL
same,EC50,A549,0.006 µg/mL
same,EC50,PC-3,1.9 µg/mL
same,EC50,RPMI-7951,0.01 µg/mL
same,EC50,MCF7 [1],0.004 µg/mL
same,EC50,U-251,0.01 µg/mL
same,EC50,HT-29,0.6 µg/mL
CCCCCCCCCC[C@H](O)[C@H]1CC[C@H]([C@H](O)CC[C@H](O)[C@@H]2CC[C@@H](CCCCCCC[C@@H](O)CC3=C[C@H](C)OC3=O)O2)O1 [BULLATALICIN],LC50,Aedes aegypti,0.1 µg/mL
same,Ratio,Blattella germanica [2],0.9
same,Activity,X5563,67%
same,Ratio,Blattella germanica [3],1.8
CCCCCCCCCC[C@@H](O)[C@H]1CC[C@@H]([C@H]2CC[C@H]([C@H](O)CCC[C@H](O)CCCCCCCC3=C[C@H](C)OC3=O)O2)O1 [TRILOBIN],LC50,Aedes aegypti,0.67 µg/mL
CCCCCCCCCCCC[C@@H](O)[C@H]1CC[C@H]([C@H](O)CC/C=C\CCCCCC[C@@H]2CC(CC(C)=O)C(=O)O2)O1 (mixture of isomers),EC50,[4],0.085 µg/mL
same,EC50,[5],0.14 µg/mL
same,EC50,[6],0.047 µg/mL
CCCCCCCCCC[C@H](O)[C@@H]1CC[C@H]([C@H]2CC[C@@H]([C@H](O)CCCCCCCC[C@@H](O)CC3=C[C@H](C)OC3=O)O2)O1 [ROLLIMEMBRIN],IC50,[7],0.33 nM
CCCCCCC(O)CCC[C@H](O)[C@@H]1CC[C@@H]([C@@H]2CC[C@H]([C@H](O)CCCCCCCCCCC3=C[C@H](C)OC3=O)O2)O1 (stereo partly drawn) [CAROLIN C],ED50,KB,2 ×10⁻⁴ ug/ml
same,Activity,MCF7 [8],50%
